Experiment [1] has as its target T1, recombinant human Cox-2 (r-hu Cox-2) (Homo sapiens, UniProt P35354).
T1 construct: made in house; host or cells: baculovirus/Sf9 insect cells (microsomes)
T1 sequence (P35354 18-604): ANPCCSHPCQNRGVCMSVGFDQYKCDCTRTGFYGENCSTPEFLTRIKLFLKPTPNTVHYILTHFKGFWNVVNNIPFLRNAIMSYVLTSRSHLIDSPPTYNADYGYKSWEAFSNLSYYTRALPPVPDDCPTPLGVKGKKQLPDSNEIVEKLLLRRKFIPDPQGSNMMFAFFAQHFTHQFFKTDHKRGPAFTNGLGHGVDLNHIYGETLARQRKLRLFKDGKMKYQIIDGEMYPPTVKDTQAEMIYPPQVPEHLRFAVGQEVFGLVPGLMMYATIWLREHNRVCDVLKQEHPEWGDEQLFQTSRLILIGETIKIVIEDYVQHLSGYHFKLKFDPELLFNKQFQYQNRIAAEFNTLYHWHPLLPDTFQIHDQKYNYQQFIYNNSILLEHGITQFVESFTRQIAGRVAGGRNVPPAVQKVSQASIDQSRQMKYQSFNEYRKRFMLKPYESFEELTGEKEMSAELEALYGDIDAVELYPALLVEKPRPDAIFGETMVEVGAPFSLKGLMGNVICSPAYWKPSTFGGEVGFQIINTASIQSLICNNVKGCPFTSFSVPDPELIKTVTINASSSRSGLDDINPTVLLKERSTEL
Kind of experiment: Recombinant human PGHS-2 (r-hu Cox-2) enzyme assay, PGE2 by EIA. It is filed as biochemical. Particulars: for IC50: parenthetical values indicate IC50, read-out: r-hu COX2 IC50 (parenthetical values); for inhibition at 10 µM: at 10000 nM; for inhibition at 10 µM / inhibition at 0.1 µM: read-out: r-hu COX2 percent inhibition; for inhibition at 0.1 µM: at 100 nM. How it is done:
(§1) To compare the mean responses of the treatment groups, analysis of variance was applied. Percent inhibition values were determined by comparing the individual treatment mean values to the mean of the control group. Linear regression was used to estimate IC50's/ED50's in appropriate assays.
(§2) EIA reagents for prostaglandin determination were purchased from Perseptive Diagnostics, (Cambridge, MA). Prostaglandin E2 (PGE2) levels in lavage fluids were determined after the samples were dried under nitrogen and reconstituted with assay buffer. PGE2 levels in enzyme assays or cell culture media were measured against standards prepared in the same milieu. The immunoassays were conducted as recommended by the manufacturer. The EIA was conducted in 96 well microtiter plates (Nunc Roskilde, Denmark) and optical density was measured using a microplate reader (Vmax, Molecular Devices Corp., Menlo Park, CA).
(§3) Inhibition of prostaglandin biosynthesis in vitro was evaluated using recombinant human Cox-1 (r-hu Cox-1) and Cox-2 (r-hu Cox-2) enzyme assays. […] The reaction was allowed to run for 2.5 minutes at room temperature prior to quenching with HCl and neutralization with NaOH. PGE2 production in the presence and absence of the drug was determined by EIA analysis. The EIA was conducted in 96 well microtiter plates (Nunc Roskilde, Denmark) and optical density was measured using a microplate reader (Vmax, Molecular Devices Corp., Menlo Park, CA). EIA reagents for prostaglandin determination were purchased from Perseptive Diagnostics (Cambridge, MA). PGE2 levels were measured against standards prepared in the same milieu. The immunoassays were conducted as recommended by the manufacturer. The compounds are designated by the Example Number. […] Values for Cox-2 inhibition that are parenthetical indicate IC50 values.

In experiment [2] the test system is Human amnionic WISH cells. Kind of experiment: IL-1β induced PGE2 production in WISH cells. It is filed as cell-based. Conditions: IL-1β induced PGE2, 18 hour incubation; for inhibition at 1 µM: at 1000 nM; for IC50: parenthetical value, read-out: WISH (parenthetical value, IC50 by analogy with Table 1). How it is done:
as §2
Human amnionic WISH cells were grown to 80% confluence in 48 well plates. Following removal of the growth medium and two washings with Gey's Balanced Salt Solution, 5 ng IL-1β/ml (UBI, Lake Placid, NY) was added to the cells with or without test compound in DMSO (0.01% v/v) in Neuman-Tytell Serumless Medium (GIBCO, Grand Island, NY). Following an 18 hour incubation to allow for the maximal induction of PGHS-2, the conditioned medium was removed and assayed for PGE2 content by EIA analysis as described above.
WISH cell values indicate percent inhibition at the particular nanomolar dose level.

The target in experiment [3] is T2, recombinant human Cox-1 (r-hu Cox-1) (Homo sapiens, UniProt P23219).
T2 construct: made in house; host or cells: baculovirus/Sf9 insect cells (microsomes)
Kind of experiment: Recombinant human PGHS-1 (r-hu Cox-1) enzyme assay, PGE2 by EIA. It counts as biochemical. Particulars: read-out: r-hu COX1 percent inhibition. Here is the method:
as §1, §2, §3

Experiment [4] concerns male adrenalectomized Sprague-Dawley rats. Kind of experiment: Rat carrageenan pleural inflammation (CIP) model. Particulars: 10 milligrams per kilogram body weight, oral, 30 minutes prior to carrageenan; lavage four hours later; inhibition of prostaglandin biosynthesis. It counts as in vivo. Here is the method:
For oral administration, test compounds were suspended on the day of use in 100% polyethyleneglycol (PEG 400) with a motorized homogenizer equipped with a Teflon-coated pestle (TRI-R Instrument, Jamaica, NY).
as §1, §2
Pleural inflammation was induced in male adrenalectomized Sprague-Dawley rats following the method of Vinegar et al., Fed. Proc. 1976, 35, 2447-2456. […] Eicosanoids were determined by EIA as described above. […]

Setting [5] is: Homo sapiens, read-out: WISH percent inhibition.

T2 sequence (P23219 24-599): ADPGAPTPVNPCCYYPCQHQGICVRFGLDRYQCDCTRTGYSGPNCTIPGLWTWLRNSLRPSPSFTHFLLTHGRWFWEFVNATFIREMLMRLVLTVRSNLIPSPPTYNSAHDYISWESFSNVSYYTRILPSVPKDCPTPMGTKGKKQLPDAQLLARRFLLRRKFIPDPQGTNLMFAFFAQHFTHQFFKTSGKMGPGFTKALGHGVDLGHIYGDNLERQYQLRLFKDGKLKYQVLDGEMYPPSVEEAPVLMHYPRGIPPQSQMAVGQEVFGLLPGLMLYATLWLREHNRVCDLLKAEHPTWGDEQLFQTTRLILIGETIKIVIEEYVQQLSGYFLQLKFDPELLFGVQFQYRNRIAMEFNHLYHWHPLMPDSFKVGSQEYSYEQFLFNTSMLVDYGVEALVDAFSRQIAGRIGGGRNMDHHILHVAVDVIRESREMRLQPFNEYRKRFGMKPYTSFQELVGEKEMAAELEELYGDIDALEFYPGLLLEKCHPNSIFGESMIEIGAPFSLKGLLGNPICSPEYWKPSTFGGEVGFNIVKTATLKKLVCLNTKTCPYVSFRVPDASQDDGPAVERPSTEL

As for `CS(=O)(=O)c1ccc(-c2nn3c(c2-c2ccc(F)cc2)OCCC3)cc1` [Example 1, 3-(4-Fluorophenyl)-2-(4-(methylsulphonyl)phenyl)-6,7-dihydro-5H-pyrazolo[5,1-b][1,3]oxazine], in experiment [1], the 50% inhibitory concentration (IC50) was 720 nM. In experiment [2] (setting [5]), the inhibition at 1 µM was determined as 19%. For the same molecule, the inhibition at 100 µM in experiment [3] was determined as 4%.

Consider `CS(=O)(=O)c1ccc(-c2nn3c(c2-c2ccc(F)cc2)OCCCC3)cc1` [Example 2, 3-(4-Fluorophenyl)-2-(4-(methylsulphonyl)phenyl)-5,6,7,8-tetrahydropyrazolo[5,1-b][1,3]oxazepine], for which, in experiment [1], the inhibition at 10 µM was 57%. The inhibition at 100 µM in experiment [3] is 9%.

`CS(=O)(=O)c1ccc(-c2nn3c(c2-c2ccc(F)cc2)OCc2ccccc2C3)cc1` [Example 3]: the “CIP Inh @10mpk” value in experiment [4] is 3%. Moreover, the IC50 in experiment [1] turned out to be 90 nM. In addition, the inhibition at 0.01 µM in experiment [2] (Homo sapiens, at 10 nM, read-out: WISH percent inhibition) stood at 43%. Moreover, in experiment [3], the inhibition at 100 µM amounted to 20%.

For the molecule `CS(=O)(=O)c1ccc(-c2nn3c(c2-c2ccc(F)cc2)OCC=CC3)cc1` [Example 4, 3-(4-Fluorophenyl)-2-(4-methylsulponylphenyl) -5,8-dihydropyrazolo[5,1-b][1,3]oxazepine], in experiment [1], the inhibition at 10 µM is 62%. Moreover, the inhibition at 100 µM in experiment [3] is 12%.

As to `CS(=O)(=O)c1ccc(-c2nn3c(c2-c2ccc(F)cc2)OCC3)cc1` [Example 5, 7-(4-Fluorophenyl)-6-(4-(methylsulphonyl)phenyl)-2,3-dihydropyrazolo[5,1-b][1,3]oxazole], in experiment [2] (setting [5]), the inhibition at 1 µM amounted to 33%.

For the molecule `CS(=O)(=O)c1ccc(-c2nn3c(c2-c2ccc(F)cc2)OCc2ccccc2-3)cc1` [Example 6, 3-(4-Fluorophenyl)-2-(4-(methylsulphonyl)phenyl)-5H-pyrazolo[1,5-b][1,3]-benzoxazine], the inhibition at 0.1 µM in experiment [1] was determined as 82%. For the same molecule, the inhibition at 100 µM in experiment [3] was 25%.

Consider `CS(=O)(=O)c1ccc(-c2nn3c(-c4ccccc4)coc3c2-c2ccc(F)cc2)cc1` [Example 37, 7-(4-Fluorophenyl)-6-(4-(methylsulphonyl)phenyl)-3-phenylpyrazolo[5,1-b][1,3]oxazole], for which, in experiment [4], the “CIP Inh @10mpk” value is listed as 0%.

Take `CS(=O)(=O)c1ccc(-c2nn3c(C4C5CC6CC(C5)CC4C6)coc3c2-c2ccc(F)cc2)cc1` (stereo not shown) [Example 39, 3-(2-Adamantyl)-7-(4-fluorophenyl)-6-(4-(methylsulphonyl)phenyl)pyrazolo[5,1-b][1,3]oxazole]: the WISH percent inhibition is recorded as 38% in experiment [2] (at 0.1 (nM)) and 95% in experiment [2] (at 1 (nM)).

In the case of `Cc1oc2c(-c3ccc(F)cc3)c(-c3ccc(S(C)(=O)=O)cc3)nn2c1-c1ccccc1` [Example 41, 7-(4-Fluorophenyl)-2-methyl-6-(4-(methylsulphonyl)phenyl)-3-phenylpyrazolo[5,1-b][1,3]oxazole], the values for the WISH percent inhibition in experiment [2] (at 0.1 (nM)) and in experiment [2] (at 1 (nM)) were 33% and 52%, respectively.

In the case of `CS(=O)(=O)c1ccc(-c2nn3c4c(oc3c2-c2ccc(F)cc2)CCCC4)cc1` [Example 42, 3-(4-Fluorophenyl)-2-(4-(methylsulphonyl)phenyl)-5,6,7,8-tetrahydropyrazolo[5,1-b][1,3]benzoxazole], the inhibition at 0.1 µM in experiment [1] amounted to 86%. For the same molecule, the results for the WISH percent inhibition in experiment [2] (at 0.01 (nM)) and in experiment [2] (at 0.1 (nM)) were 37% and 81%, respectively. Moreover, the inhibition at 100 µM in experiment [3] came to 23%.

Turning to `Cc1c(C#N)oc2c(-c3ccc(F)cc3)c(-c3ccc(S(C)(=O)=O)cc3)nn12` [Example 54, 2-Cyano-7-(4-fluorophenyl)-3-methyl-6-(4-(methylsulphonyl)phenyl)pyrazolo[5,1-b][1,3]oxazole], in experiment [2] (Homo sapiens), the IC50 was 0.2 nM.

For the molecule `CC(C)(C)c1coc2c(-c3ccc(F)cc3)c(-c3ccc(S(N)(=O)=O)cc3)nn12` [Example 55], in experiment [1], the inhibition at 0.1 µM turned out to be 88%. Besides, the inhibition at 10 µM in experiment [3] (at 10 µM) stood at 99%.

In the case of `CC=CC(=O)c1oc2c(-c3ccc(F)cc3)c(-c3ccc(S(C)(=O)=O)cc3)nn2c1C` [Example 58, 1-[7-(4-Fluorophenyl)-3-methyl-6-(4-(methylsulphonyl)phenyl)pyrazolo[5,1-b][1,3]oxazol-2-yl]but-2-en-1-one], in experiment [2] (at 0.1 (nM)), the WISH percent inhibition is listed as 84 @ 0.1%.

Turning to `Cc1c(C#N)oc2c(-c3ccc(F)cc3)c(-c3ccc(S(N)(=O)=O)cc3)nn12` [Example 59, 6-(4-(Aminosulphonyl)phenyl)-2-cyano-7-(4-Fluorophenyl)-3-methyl-pyrazolo[5,1-b][1,3]oxazole], in experiment [1], the inhibition at 0.1 µM was found to be 51%. The inhibition at 100 µM in experiment [3] was determined as 96%.

In the case of `CCc1coc2c(-c3ccc(F)cc3)c(-c3ccc(S(C)(=O)=O)cc3)nn12` [Example 61, 3-Ethyl-7-(4-fluorophenyl)-6-(4-(methylsulphonyl)phenyl)pyrazolo[5,1-b][1,3]oxazole], in experiment [1], the inhibition at 0.1 µM turned out to be 94%. In addition, the inhibition at 100 µM in experiment [3] was determined as 23%.

For the molecule `CCc1coc2c(-c3ccc(F)cc3)c(-c3ccc(S(N)(=O)=O)cc3)nn12` [Example 62, 6-(4-(aminosulphonyl)phenyl)-3-Ethyl-7-(4-fluorophenyl)pyrazolo[5,1-b][1,3]oxazole], the IC50 in experiment [1] is 2 nM; in experiment [2] (Homo sapiens), 0.21 nM. The inhibition at 100 µM in experiment [3] is 91%.

Usually IC50 stands for the midpoint of a concentration-inhibition curve. In general, inhibition refers to the change of the read-out against control, counted positive when it falls.

(Values after patent EP1206474B1, “SULFONYLPHENYLPYRAZOLE COMPOUNDS USEFUL AS COX-2 INHIBITORS” (ABBOTT LABORATORIES, priority 1999, dated 2001).)
